Results reported in ChEMBL document CHEMBL1158005, “New 12a-hydroxyrotenoids from gliricidia sepium bark” (J Nat Prod, 1999).
In brackets after ≈: the same amount, converted by molar mass.

Assay: Toxicity in Artemia salina larvae after 24 hrs
Type: organism-based
Conditions: in vivo

In the case of `COc1ccc2c(c1)OC[C@H]1Oc3cc(O)ccc3C(=O)[C@@]21O` [GLIRICIDOL], the LC50 at 24 h is reported as 50.7 µg/mL (≈ 161 µM).

Work on `COc1cc2c(cc1OC)[C@]1(O)C(=O)c3ccc(O)cc3O[C@@H]1CO2` yielded an LC50 at 24 h of 284 µg/mL (≈ 826 µM).

With `COc1ccc2c(c1)OC[C@H]1Oc3cc(O)ccc3C(c3cc([C@@H]4COc5cc(O)ccc5C4)ccc3OC)[C@@]21O` (stereo partly drawn) [GLIRICIDIN] the LC50 at 24 h was 244 µg/mL (≈ 439 µM).
